Format in all cases: biochemical
Test [1] addresses T1, human JAK2 (a.a. 828-1132) catalytic domain (Homo sapiens, UniProt O60674).
T1 construct: human JAK1 (a.a. 837-1142) and JAK2 (a.a. 828-1132); His tag (N); made in house; host or cells: insect cells (baculovirus)
Briefly: In vitro JAK kinase assay (HTRF, phosphorylation of a biotinylated peptide), JAK2. The settings on record: 1 mM ATP. In outline:
(§1)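 His-tagged JAK1/JAK2 catalytic domains from baculovirus-infected insect cells phosphorylate 500 nM biotinylated peptide at 1 mM ATP in 50 mM Tris pH 7.8, 100 mM NaCl, 5 mM DTT, 0.01% BSA, 1 h at room temperature. EDTA-stopped; SA-APC/Eu-Py20 HTRF read after 40 min; IC50 determined.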
(In general: In TR-FRET formats the signal depends on donor and acceptor labels being close together.)

Test [2] addresses T2, human JAK1 (a.a. 837-1142) catalytic domain (Homo sapiens, UniProt P23458).
T2 construct: human JAK1 (a.a. 837-1142) and JAK2 (a.a. 828-1132); His tag (N); made in house; host or cells: insect cells (baculovirus)
Kind of test: In vitro JAK kinase assay (HTRF, phosphorylation of a biotinylated peptide), JAK1. As to conditions: 1 mM ATP. In short, it runs like this:
as §1

In test [3] the test system is human JAK1 (a.a. 837-1142) catalytic domain. The description is as above. As to conditions: ratio of JAK2 IC50 to JAK1 IC50, 1 mM ATP. In outline:
as §1

For orientation: IC50 means the concentration needed to halve the response being measured.

SMILES strings stand for the structures.

T2 sequence (P23458 849-1154): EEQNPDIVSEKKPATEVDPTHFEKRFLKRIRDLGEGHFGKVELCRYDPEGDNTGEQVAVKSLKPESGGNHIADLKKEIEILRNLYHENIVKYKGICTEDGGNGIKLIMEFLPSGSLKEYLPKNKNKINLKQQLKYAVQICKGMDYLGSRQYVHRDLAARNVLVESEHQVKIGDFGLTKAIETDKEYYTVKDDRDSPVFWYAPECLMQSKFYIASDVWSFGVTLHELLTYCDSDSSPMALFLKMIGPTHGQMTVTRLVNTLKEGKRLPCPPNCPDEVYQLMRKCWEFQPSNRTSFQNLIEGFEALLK
T1 sequence (O60674 828-1132): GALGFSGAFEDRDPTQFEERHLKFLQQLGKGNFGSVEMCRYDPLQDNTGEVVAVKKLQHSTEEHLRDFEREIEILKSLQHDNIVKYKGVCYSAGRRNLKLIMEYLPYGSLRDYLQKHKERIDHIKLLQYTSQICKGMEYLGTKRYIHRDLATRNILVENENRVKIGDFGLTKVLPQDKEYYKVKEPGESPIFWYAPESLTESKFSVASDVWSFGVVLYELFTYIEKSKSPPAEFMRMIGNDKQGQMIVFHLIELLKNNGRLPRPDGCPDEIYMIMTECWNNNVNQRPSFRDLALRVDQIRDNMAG

Regarding `N#CC[C@]1(n2cc(-c3ncnc4[nH]ccc34)cn2)C[C@H](N2CCC(Oc3cc(Cn4cnnc4)cc(C(F)(F)F)n3)CC2)C1` [Example 24, [trans-1-[4-(7H-pyrrolo[2,3-d]pyrimidin-4-yl)-1H-pyrazol-1-yl]-3-(4-{[4-(4H-1,2,4-triazol-4-ylmethyl)-6-(trifluoromethyl)pyridin-2-yl]oxy}piperidin-1-yl)cyclobutyl]acetonitrile], the IC50 in test [1] is 20 to 150 nM; in test [2] it was below 20 nM. The JAK2/JAK1 in test [3] is given as above 10.

In the case of `CC1(NCc2cc(OC3CCN([C@H]4C[C@](CC#N)(n5cc(-c6ncnc7[nH]ccc67)cn5)C4)CC3)nc(C(F)(F)F)c2)CC1` [Example 10, {trans-3-(4-{[4-{[(1-methylcyclopropyl)amino]methyl}-6-(trifluoromethyl)pyridin-2-yl]oxy}piperidin-1-yl)-1-[4-(7H-pyrrolo[2,3-d]pyrimidin-4-yl)-1H-pyrazol-1-yl]cyclobutyl}acetonitrile], the values for the IC50 in test [1] and in test [2] were 20 to 150 nM and below 20 nM, respectively. Besides, in test [3], the JAK2/JAK1 is above 10.

For `CCNCc1cc(NC2CCN([C@H]3C[C@](CC#N)(n4cc(-c5ncnc6[nH]ccc56)cn4)C3)CC2)nc(C(F)(F)F)n1` [Example 28, {trans-3-(4-{[6-[(ethylamino)methyl]-2-(trifluoromethyl)pyrimidin-4-yl]amino}piperidin-1-yl)-1-[4-(7H-pyrrolo[2,3-d]pyrimidin-4-yl)-1H-pyrazol-1-yl]cyclobutyl}acetonitrile], the results for the IC50 in test [1] and in test [2] were 20 to 150 nM and below 20 nM, respectively. Also, the JAK2/JAK1 in test [3] was above 10.

On to `N#CC[C@]1(n2cc(-c3ncnc4[nH]ccc34)cn2)C[C@H](N2CCC(Nc3cc(CNCCO)cc(C(F)(F)F)n3)CC2)C1` [Example 33, {trans-3-(4-{[4-{[(2-hydroxyethyl)amino]methyl}-6-(trifluoromethyl)pyridin-2-yl]amino}piperidin-1-yl)-1-[4-(7H-pyrrolo[2,3-d]pyrimidin-4-yl)-1H-pyrazol-1-yl]cyclobutyl}acetonitrile], for which the IC50 in test [1] was 20 to 150 nM; in test [2], below 20 nM. In addition, in test [3], the JAK2/JAK1 was above 10.

As for `N#CC[C@]1(n2cc(-c3ncnc4[nH]ccc34)cn2)C[C@H](N2CCC(Nc3cc(CN4CC(O)C4)cc(C(F)(F)F)n3)CC2)C1` [Example 41, {trans-3-(4-{[4-[(3-hydroxyazetidin-1-yl)methyl]-6-(trifluoromethyl)pyridin-2-yl]amino}piperidin-1-yl)-1-[4-(7H-pyrrolo[2,3-d]pyrimidin-4-yl)-1H-pyrazol-1-yl]cyclobutyl}acetonitrile], the IC50 in test [1] was 20 to 150 nM; in test [2], below 20 nM. Moreover, the JAK2/JAK1 in test [3] is above 10.

Regarding `N#CC[C@]1(n2cc(-c3ncnc4[nH]ccc34)cn2)C[C@H](N2CCC(Oc3cc(CN[C@H]4C[C@H](O)C4)cc(C(F)(F)F)n3)CC2)C1` [Example 12, {trans-3-(4-{[4-{[(trans-3-hydroxycyclobutyl)amino]methyl}-6-(trifluoromethyl)pyridin-2-yl]oxy}piperidin-1-yl)-1-[4-(7H-pyrrolo[2,3-d]pyrimidin-4-yl)-1H-pyrazol-1-yl]cyclobutyl}acetonitrile], the IC50 is 20 to 150 nM in test [1] and below 20 nM in test [2]. Further, in test [3], the JAK2/JAK1 is given as above 10.
